This is an account of results in patent US8673880B2, “Prevention and/or treatment of neurodegenerative disorders” (The University Of Liverpool, priority 2006, dated 2014).

Type in all cases: biochemical
Experiment [1] has as its target T1, recombinant human BACE-1 (Homo sapiens, UniProt P56817).
T1 construct: purchased Sigma
As to the kind of experiment: BACE-1 inhibition by in vitro FRET peptide cleavage assay. The settings on record: for IC50 (BACE-1): FRET peptide cleavage; for Therapeutic ratio (BACE/Xa): calculated from IC50 against BACE-1/anticoagulant activity; for EC50 (BACE inhibition): Example 2, Table 2. The procedure:
In vitro cleavage of APP by BACE-1 was measured using a FRET peptide cleavage assay.
The ability of the compounds to inhibit BACE-1 cleavage of APP was assessed using a fluorescent resonance energy transfer (FRET) peptide cleavage assay employing the FRET peptide 5-FAM-Glu-Val-Asn-Leu-Asp-Ala-Phe-Lys(QXL520)-OH, containing the Swedish amino acid variant (Anaspec, Inc., CA, USA). When intact, the amino terminal fluorophore is quenched, but upon enzymatic cleavage the fluorophore is released from quencher and fluoresces (520 nm). Assays were performed in triplicate in 96 well black plates (20 mM sodium acetate, 0.1% Triton-X-100, pH 4.5; 2.5 μM peptide per well and 4.0×10^−3 units/well of recombinant human BACE-1 (Sigma)). The appropriate controls for enzyme activity and background fluorescence were employed and plates were incubated (1 h, 25° C., stopped with 2.5 M sodium acetate) Inhibitors were added in a concentration range from 1000-0.0001 μg/ml. Fluorescence 480ex/520em was measured on a Polarstar plate reader (BMG LabTechnologies, UK) and data were analysed by plotting log10 concentration of inhibitor against percent inhibition and fitting a four parameter sigmoidal curve using BioDataFit 1.02 (Chang Bioscience, USA).

For experiment [2], the system named is Factor Xa. In words: Anti Factor Xa (anticoagulant) activity, Coatest Heparin test kit. Particulars: for Anti-coagulant activity: anti-factor Xa, percentage of PIMH (defined as 100%); for Anticoagulant activity (%): Example 2, Table 2, standard heparin = 100. The procedure:
Anti Factor Xa activity was measured against a porcine mucosal heparin (PIMH) standard of known activity (Sigma, UK) using a diagnostic grade Coatest Heparin test kit (Chromogenix, MA, USA), adapted to a 96 well plate format, reading A405 (Polarstar plate reader (BMG LabTechnologies, UK)).

Experiment [3] deals with T2, Aβ peptide (Amyloid β Protein Fragment 1-42) (Homo sapiens, UniProt P05067).
T2 construct: Amyloid β Protein Fragment 1-42; Sigma A9810; purchased Sigma A9810
As to the kind of experiment: Aβ aggregation assay (Thioflavin T). Particulars: for increase in the time taken to reach half-maximal peptide aggregation: concentration of 100 μg/ml, compared to parental PMH; for rate of A-β aggregation, % slower: compared to intact heparin. The procedure: The Aβ peptide was prepared by addition of 1 ml of hexafluoro-2-propanol to 1 mg Aβ peptide (Amyloid β Protein Fragment 1-42; Sigma A9810) and disaggregation at room temperature for 1 hour. The resulting material was divided into 50 μl (50 μg) aliquots and dried in Speed Vac for approximately 2 hours, followed by storage at −20° C. The Thioflavin T (Sigma T-3516) solution was prepared as a 5 mM solution in 50 mM Glycine-NaOH pH 8.5, and stored in the dark at 4° C. Thioflavin T assay buffer comprising 20 μl Thioflavin T solution with 50 μl 1M DTT and […] assay Buffer (10 mM HEPES/100 mM NaCl pH 7.4) was kept on ice. 50 μl of 20 mM NaOH was added to 50 μg of Aβ peptide. 2.5 ml of Thioflavin T assay buffer was then added to this Aβ peptide solution, making “Aβ buffer”. The remaining 2.5 ml of Thioflavin T assay buffer was the blank buffer, and both were kept on ice. Six replicates of sample dilutions (1:1 in assay buffer) were pipetted into a 96 well black plate (Greiner 655076; 100 μl/well) and the plate was kept on ice. 100 μl/well of Aβ buffer was added to the samples (in triplicate), and 100 μl/well of the blank buffer added to a further three sample replicates. The 96 well plate was read (450 nm excitation wavelength and 490 nm emission wavelength), taking a reading every 150 seconds for 250 cycles one plate reader set at 37° C.

Experiment [4] deals with T3, human recombinant renin (Homo sapiens, UniProt P00797).
T3 construct: purchased Cayman Chemical
T3 sequence (P00797 67-406): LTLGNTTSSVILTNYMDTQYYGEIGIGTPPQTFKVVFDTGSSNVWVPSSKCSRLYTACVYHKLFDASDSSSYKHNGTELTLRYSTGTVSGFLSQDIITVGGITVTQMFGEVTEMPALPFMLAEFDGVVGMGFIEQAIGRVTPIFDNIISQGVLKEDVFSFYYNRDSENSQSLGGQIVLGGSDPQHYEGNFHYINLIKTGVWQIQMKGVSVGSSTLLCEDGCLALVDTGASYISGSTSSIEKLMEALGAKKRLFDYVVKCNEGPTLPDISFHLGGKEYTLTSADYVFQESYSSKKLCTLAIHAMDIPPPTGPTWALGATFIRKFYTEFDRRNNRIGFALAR
As to the kind of experiment: Renin FRET peptide cleavage assay. Particulars: concentrations up to 1000 μg/ml. The procedure:
(§1) The ability of compounds to inhibit the structurally related proteases pepsin and cathepsin D (Sigma, UK) was measured by FRET cleavage assay (5 pmol enzyme/well, EnzChek Protease Assay kit (Molecular Probes, UK) according to manufacturer's instructions). Activity against human recombinant renin (Cayman Chemical, MI, USA), was measured by FRET peptide cleavage assay (0.08 pMoles enzyme/well, using the Renin Substrate 1 (Molecular Probes, Invitrogen, UK) according to manufacturer's instructions. IC50 values were calculated as described above.

Experiment [5] deals with T4, cathepsin D (Homo sapiens, UniProt P07339).
T4 construct: purchased Sigma, UK
In words: Cathepsin D FRET cleavage assay. The method, then:
as §1

Experiment [6] deals with T5, pepsin (Sus scrofa, UniProt P00791).
T5 construct: purchased Sigma, UK
As to the kind of experiment: Pepsin FRET cleavage assay. The procedure: as §1

T1 sequence (P56817 46-501): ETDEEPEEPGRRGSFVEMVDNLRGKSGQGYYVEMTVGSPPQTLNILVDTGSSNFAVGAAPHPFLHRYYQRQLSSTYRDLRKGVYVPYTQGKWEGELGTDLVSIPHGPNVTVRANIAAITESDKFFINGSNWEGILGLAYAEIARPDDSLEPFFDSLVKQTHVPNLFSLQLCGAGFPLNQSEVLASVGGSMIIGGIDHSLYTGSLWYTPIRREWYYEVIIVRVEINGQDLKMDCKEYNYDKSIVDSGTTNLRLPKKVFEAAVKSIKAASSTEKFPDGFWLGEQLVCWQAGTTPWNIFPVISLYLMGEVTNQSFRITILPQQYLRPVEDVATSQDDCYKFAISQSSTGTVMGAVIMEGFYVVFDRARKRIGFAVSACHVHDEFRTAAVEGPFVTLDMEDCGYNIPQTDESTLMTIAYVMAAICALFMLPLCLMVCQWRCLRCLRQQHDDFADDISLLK
T2 sequence (P05067 672-713): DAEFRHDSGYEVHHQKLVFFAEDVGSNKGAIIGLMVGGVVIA
T4 sequence (P07339 65-412, species assumed): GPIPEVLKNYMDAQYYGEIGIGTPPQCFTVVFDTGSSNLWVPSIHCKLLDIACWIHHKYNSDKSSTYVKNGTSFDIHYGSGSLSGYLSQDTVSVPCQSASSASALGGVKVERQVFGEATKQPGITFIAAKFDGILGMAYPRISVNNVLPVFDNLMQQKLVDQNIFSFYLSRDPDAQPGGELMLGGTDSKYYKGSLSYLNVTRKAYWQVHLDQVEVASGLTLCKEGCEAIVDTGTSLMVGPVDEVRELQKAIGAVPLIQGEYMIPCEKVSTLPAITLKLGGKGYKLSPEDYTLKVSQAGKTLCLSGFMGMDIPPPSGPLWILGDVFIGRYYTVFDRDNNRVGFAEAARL
T5 sequence (P00791 60-385): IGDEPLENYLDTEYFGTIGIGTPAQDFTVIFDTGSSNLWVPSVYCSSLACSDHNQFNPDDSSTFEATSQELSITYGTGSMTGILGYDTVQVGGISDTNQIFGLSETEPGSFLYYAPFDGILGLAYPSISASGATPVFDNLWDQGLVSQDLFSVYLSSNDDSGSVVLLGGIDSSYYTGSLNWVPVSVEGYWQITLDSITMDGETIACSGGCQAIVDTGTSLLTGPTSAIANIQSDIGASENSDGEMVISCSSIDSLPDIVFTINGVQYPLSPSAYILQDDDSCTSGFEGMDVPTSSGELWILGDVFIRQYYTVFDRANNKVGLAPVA

For 6-O-desulphated heparin [Compound 5], the “IC50 (BACE-1)” value in experiment [1] (Table 1) turned out to be 0.100 μg/ml. In addition, the “Therapeutic ratio (BACE/Xa)” value in experiment [1] was 61. The molecule further yielded an Anti-coagulant activity in experiment [2] of 0.5%.

As for “6-O-desulphated, 2-O-desulphated heparin [Compound 7]”, in experiment [1] (Table 1), the “IC50 (BACE-1)” value is given as 0.786 μg/ml. Moreover, in experiment [1], the “Therapeutic ratio (BACE/Xa)” value is recorded as 123. The Anti-coagulant activity in experiment [2] turned out to be 0.03%.

As for “6-O-desulphated, 2-O-desulphated, N-acetylated heparin [Compound 8]”, in experiment [1] (Table 1), the “IC50 (BACE-1)” value is reported as more than 100 μg/ml and the “BACE-1 inhibitory activity in words” value is given as “almost abolished”. For the same molecule, the “Therapeutic ratio (BACE/Xa)” value in experiment [1] was 1. Besides, the Anti-coagulant activity in experiment [2] came out at 0.03%.

On to “6-O-desulphated, N-acetylated heparin [Compound 6]”, for which the “IC50 (BACE-1)” value in experiment [1] (Table 1) is 0.410 μg/ml. Moreover, the “Therapeutic ratio (BACE/Xa)” value in experiment [1] was 237. The same molecule yielded an Anti-coagulant activity in experiment [2] of 0.03%.

Consider `NCCCS(=O)(=O)O` [Compound 10, 3-amino-1-propanesulfonic acid, reference compound], for which, in experiment [1] (Table 1), the “IC50 (BACE-1)” value was “No”. Moreover, in experiment [1] (even at high concentrations (1000 μg/ml)), the “inhibition of BACE-1” value is on record as “did not inhibit BACE-1”.

Take “Ido 2-de-O-sulphated heparin [Compound 3]”: in experiment [3], the “increase in the time taken to reach half-maximal peptide aggregation” value (“increase in the time taken” below) turned out to be 50%. Also, the “inhibitory effect on renin” value in experiment [4] is given as “None of the compounds exerted an inhibitory effect on renin”. In experiment [1] (Table 1), the “IC50 (BACE-1)” value is reported as 0.053 μg/ml. For the same molecule, the “Therapeutic ratio (BACE/Xa)” value in experiment [1] is 147. The molecule also displayed an Anti-coagulant activity in experiment [2] of 0.4%. Also, the “IC50 against cathepsin D” value in experiment [5] worked out at 0.77 µg/mL.

For the molecule “Ido 2-de-O-sulphated, N-acetylated heparin [Compound 4]”, the “rate of A-β aggregation, % slower” value in experiment [3] (FIG. 2) was 100%. Further, the “increase in the time taken” value in experiment [3] was 100%. Moreover, in experiment [6], the IC50 against pepsin was more than 1000 µg/mL. For the same molecule, the “inhibitory effect on renin” value in experiment [4] is recorded as “None of the compounds exerted an inhibitory effect on renin”. For the same molecule, the “EC50 fold lower than unmodified PMH” value in experiment [1] (Example 2) is reported as “approximately 3 fold”. In experiment [1], the “EC50 (BACE inhibition)” value is 0.089 µg/mL and the “Therapeutic ratio (BACE/Xa)” value was 1092. For the same molecule, the “IC50 (BACE-1)” value in experiment [1] (Table 1) worked out at 0.091 μg/ml. Besides, in experiment [2] (Example 1), the “anti factor Xa activity, fold lower than PIMH” value is reported as “at least 3000 fold”. In experiment [2], the “Anticoagulant activity (%)” value is on record as less than 0.03% and the Anti-coagulant activity is recorded as 0.03%.

For the molecule N-acetyl heparin [Compound 2], the “rate of A-β aggregation, % slower” value in experiment [3] (FIG. 2) was determined as 50%. For the same molecule, the “increase in the time taken” value in experiment [3] is listed as 50%. Moreover, the IC50 against pepsin in experiment [6] was 3.27 µg/mL. The “fold less potent than PIMH against pepsin” value in experiment [6] (compared with compound 1) was found to be 14 fold. Besides, the “inhibitory effect on renin” value in experiment [4] was “None of the compounds exerted an inhibitory effect on renin”. The “IC50 (BACE-1)” value in experiment [1] (Table 1) is on record as 0.031 μg/ml. In experiment [1], the “Therapeutic ratio (BACE/Xa)” value is reported as 3136. This molecule registered an Anti-coagulant activity in experiment [2] of 0.03%. Further, the “IC50 against cathepsin D” value in experiment [5] came to 0.27 µg/mL.

Turning to Per-sulphated heparin [Compound 9], the “IC50 (BACE-1)” value in experiment [1] (Table 1) is reported as 0.053 μg/ml. For the same molecule, in experiment [1], the “Therapeutic ratio (BACE/Xa)” value is on record as 2. The Anti-coagulant activity in experiment [2] came to 35.0%.

As to “porcine intestinal mucosal heparin [Compound 1, reference compound]”, the “enhancement of Aβ aggregation” value in experiment [3] (FIG. 2) was “maximum enhancement”. For the same molecule, the IC50 against pepsin in experiment [6] came to 0.23 µg/mL. Besides, the “inhibitory effect on renin” value in experiment [4] is “None of the compounds exerted an inhibitory effect on renin”. In experiment [1], the “EC50 (BACE inhibition)” value was 0.027 µg/mL and the “Therapeutic ratio (BACE/Xa)” value is 1. Moreover, the “IC50 (BACE-1)” value in experiment [1] (Table 1) is reported as 0.028 μg/ml. Besides, in experiment [2], the “Anticoagulant activity (%)” value came out at 100% and the Anti-coagulant activity came to 100%. Further, the “IC50 against cathepsin D” value in experiment [5] stood at 0.1 µg/mL.
